{"source": "PubChem BioAssay AID270", "about": "(DTP/NCI, 2004)", "system": "BDF1 mice, s.c. Lewis lung carcinoma, T/C %", "experiment": "NCI In Vivo Anticancer Drug Screen. Data for tumor model Lewis Lung Carcinoma (subcutaneous) in B6D2F1 (BDF1) mice", "outline": "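The value reflects a ratio in which the treated cohort's survival time or tumour size is compared against mice receiving only vehicle.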", "note": "Where “and” joins values, the source holds several entries; their conditions need not be identical. Equal values may be shown once. Results filed as inconclusive are left out."}
{"smiles": "CC1C/C=C2\\CSC(NC(=O)/C3=C\\N(C/C=C/C=C/C(O)CC(O)CC(=O)N3)C2=O)C(=O)O1", "note": "(stereo not given)", "values": [{"measurement": "T/C", "setting": "endpoint: mean tumor weight, dose: 10.6 mg/kg/injection, schedule: Q01DX011 (ip), vehicle: carboxymethylcellulose (CMC), higher = larger tumour", "value": "88 % of control"}, {"measurement": "T/C", "setting": "endpoint: mean tumor weight, dose: 16.0 mg/kg/injection, schedule: Q01DX011 (ip), vehicle: carboxymethylcellulose (CMC), higher = larger tumour", "value": "169 % of control"}, {"measurement": "T/C", "setting": "endpoint: mean tumor weight, dose: 24.0 mg/kg/injection, schedule: Q01DX011 (ip), vehicle: carboxymethylcellulose (CMC), higher = larger tumour", "value": "68 % of control"}, {"measurement": "T/C", "setting": "endpoint: mean tumor weight, dose: 36.0 mg/kg/injection, schedule: Q01DX011 (ip), vehicle: carboxymethylcellulose (CMC), higher = larger tumour", "value": "114 % of control"}]}
{"smiles": "CC(C)(C)C1CCC(NC(=O)N(CCCl)N=O)CC1", "note": "(stereo not given)", "values": [{"measurement": "T/C", "setting": "endpoint: median survival time, dose: 140.0 mg/kg/injection, schedule: Q01DX001 (ip), vehicle: gum acacia, higher = longer survival", "value": "118 % of control"}, {"measurement": "T/C", "setting": "endpoint: median survival time, dose: 315.0 mg/kg/injection, schedule: Q01DX001 (ip), vehicle: gum acacia, higher = longer survival", "value": "121 % of control"}]}
{"smiles": "Nc1n[nH]c(N)n1", "values": [{"measurement": "T/C", "setting": "endpoint: median survival time, dose: 100.0 mg/kg/injection, schedule: Q01DX009 (ip), vehicle: saline with Tween-80, higher = longer survival", "value": "113 % of control"}, {"measurement": "T/C", "setting": "endpoint: median survival time, dose: 200.0 mg/kg/injection, schedule: Q01DX009 (ip), vehicle: saline with Tween-80, higher = longer survival", "value": "102 % of control"}, {"measurement": "T/C", "setting": "endpoint: median survival time, dose: 400.0 mg/kg/injection, schedule: Q01DX009 (ip), vehicle: saline with Tween-80, higher = longer survival", "value": "95 % of control"}, {"measurement": "T/C", "setting": "endpoint: median survival time, dose: 800.0 mg/kg/injection, schedule: Q01DX009 (ip), vehicle: saline with Tween-80, higher = longer survival", "value": "110 % of control"}, {"measurement": "T/C", "setting": "endpoint: median tumor weight (est.), dose: 100.0 mg/kg/injection, schedule: Q01DX009 (ip), vehicle: saline with Tween-80, higher = larger tumour", "value": "100 % of control"}, {"measurement": "T/C", "setting": "endpoint: median tumor weight (est.), dose: 200.0 mg/kg/injection, schedule: Q01DX009 (ip), vehicle: saline with Tween-80, higher = larger tumour", "value": "103 % of control"}, {"measurement": "T/C", "setting": "endpoint: median tumor weight (est.), dose: 400.0 mg/kg/injection, schedule: Q01DX009 (ip), vehicle: saline with Tween-80, higher = larger tumour", "value": "97 % of control"}, {"measurement": "T/C", "setting": "endpoint: median tumor weight (est.), dose: 800.0 mg/kg/injection, schedule: Q01DX009 (ip), vehicle: saline with Tween-80, higher = larger tumour", "value": "91 % of control"}]}
{"smiles": "CCn1c2ccccc2c2cc(NC(=O)N(CCCl)N=O)ccc21", "values": [{"measurement": "T/C", "setting": "endpoint: median survival time, dose: 50.0 mg/kg/injection, schedule: Q01DX001 (ip), vehicle: saline with Tween-80, higher = longer survival", "value": "89 % of control"}, {"measurement": "T/C", "setting": "endpoint: median survival time, dose: 100.0 mg/kg/injection, schedule: Q01DX001 (ip), vehicle: saline with Tween-80, higher = longer survival", "value": "96 % of control"}]}
{"smiles": "CN1CCCC1", "values": [{"measurement": "T/C", "setting": "endpoint: mean tumor weight, dose: 44.0 mg/kg/injection, schedule: Q01DX011 (ip), vehicle: carboxymethylcellulose (CMC), higher = larger tumour", "value": "52 % of control"}, {"measurement": "T/C", "setting": "endpoint: mean tumor weight, dose: 66.0 mg/kg/injection, schedule: Q01DX011 (ip), vehicle: carboxymethylcellulose (CMC), higher = larger tumour", "value": "58 % of control"}, {"measurement": "T/C", "setting": "endpoint: mean tumor weight, dose: 100.0 mg/kg/injection, schedule: Q01DX011 (ip), vehicle: carboxymethylcellulose (CMC), higher = larger tumour", "value": "69 % of control"}, {"measurement": "T/C", "setting": "endpoint: mean tumor weight, dose: 150.0 mg/kg/injection, schedule: Q01DX011 (ip), vehicle: carboxymethylcellulose (CMC), higher = larger tumour", "value": "109 % of control"}]}
{"smiles": "CN(C)C=Nc1ccc2c3c(cccc13)CC2", "values": [{"measurement": "T/C", "setting": "endpoint: median survival time, dose: 6.25 mg/kg/injection, schedule: Q01DX009 (ip), vehicle: Klucel (hydroxypropylcellulose) (HPC), higher = longer survival", "value": "108 % of control"}, {"measurement": "T/C", "setting": "endpoint: median survival time, dose: 12.5 mg/kg/injection, schedule: Q01DX009 (ip), vehicle: Klucel (hydroxypropylcellulose) (HPC), higher = longer survival", "value": "107 % of control"}, {"measurement": "T/C", "setting": "endpoint: median survival time, dose: 25.0 mg/kg/injection, schedule: Q01DX009 (ip), vehicle: Klucel (hydroxypropylcellulose) (HPC), higher = longer survival", "value": "122 % of control"}]}
{"smiles": "CC[C@@]1(O)C[C@H](OC2CC(N(C)C)C(OC3CC(O)C(OC4CCC(=O)C(C)O4)C(C)O3)C(C)O2)c2c(cc3c(c2O)C(=O)c2c(O)cccc2C3=O)[C@H]1C(=O)OC", "note": "(stereo not given in full)", "values": [{"measurement": "T/C", "setting": "endpoint: median survival time, dose: 1.5 mg/kg/injection, schedule: Q01DX009 (ip), vehicle: Klucel (hydroxypropylcellulose) (HPC), higher = longer survival", "value": "104 % of control"}]}
{"smiles": "COc1ccc(-c2cc(=O)c3c(OC)c(OC)c(OC)c(OC)c3o2)cc1OC", "values": [{"measurement": "T/C", "setting": "endpoint: mean tumor weight, dose: 50.0 mg/kg/injection, schedule: Q01DX011 (ip), vehicle: saline, higher = larger tumour", "value": "55 % of control and 77 % of control"}, {"measurement": "T/C", "setting": "endpoint: mean tumor weight, dose: 200.0 mg/kg/injection, schedule: Q01DX011 (ip), vehicle: saline, higher = larger tumour", "value": "62 % of control and 78 % of control"}]}
{"smiles": "COC1C(O)CC(OC2CC(OC3CC(O[C@@H]4C(=O)c5c(cc6cc(OC7CC(OC8CC(O)C(O)C(C)O8)C(O)C(C)O7)c(C)c(O)c6c5O)C[C@H]4[C@H](OC)C(=O)[C@@H](O)[C@@H](C)O)OC(C)C3O)OC(C)C2O)OC1C", "note": "(stereo not given in full)", "values": [{"measurement": "T/C", "setting": "endpoint: median survival time, dose: 37.5 micrograms/kg/injection, schedule: Q01DX009 (ip), vehicle: water, higher = longer survival", "value": "110 % of control"}, {"measurement": "T/C", "setting": "endpoint: median survival time, dose: 75.0 micrograms/kg/injection, schedule: Q01DX009 (ip), vehicle: water, higher = longer survival", "value": "118 % of control"}, {"measurement": "T/C", "setting": "endpoint: median survival time, dose: 150.0 micrograms/kg/injection, schedule: Q01DX009 (ip), vehicle: water, higher = longer survival", "value": "86 % of control"}]}
{"smiles": "O=CN1CCOCC1", "values": [{"measurement": "T/C", "setting": "endpoint: mean tumor weight, dose: 37.0 mg/kg/injection, schedule: Q01DX011 (ip), vehicle: saline, higher = larger tumour", "value": "90 % of control"}, {"measurement": "T/C", "setting": "endpoint: mean tumor weight, dose: 55.0 mg/kg/injection, schedule: Q01DX011 (ip), vehicle: saline, higher = larger tumour", "value": "152 % of control"}, {"measurement": "T/C", "setting": "endpoint: mean tumor weight, dose: 83.0 mg/kg/injection, schedule: Q01DX011 (ip), vehicle: saline, higher = larger tumour", "value": "103 % of control"}, {"measurement": "T/C", "setting": "endpoint: mean tumor weight, dose: 250.0 mg/kg/injection, schedule: Q01DX011 (ip), vehicle: saline, higher = larger tumour", "value": "81 % of control"}, {"measurement": "T/C", "setting": "endpoint: mean tumor weight, dose: 500.0 mg/kg/injection, schedule: Q01DX011 (ip), vehicle: saline, higher = larger tumour", "value": "100 % of control"}, {"measurement": "T/C", "setting": "endpoint: mean tumor weight, dose: 1000.0 mg/kg/injection, schedule: Q01DX011 (ip), vehicle: saline, higher = larger tumour", "value": "92 % of control"}]}
